Reference: publication PMC11124822, “Discovery and Anticancer Screening of Novel Oxindole-Based Derivative Bearing Pyridyl Group as Potent and Selective Dual FLT3/CDK2 Kinase Inhibitor” (Pharmaceuticals, 2024)
Read-outs that look alike come from different tables or passages of the source.

Legend:
Experiment in all cases: NCI-60 antiproliferative screen (SRB)
MDA-MB-468 = format: cell-based, human; conditions: 48 h
KM12 = format: cell-based, human; conditions: 48 h
NCI-H226 = format: cell-based, human; conditions: 48 h
DU-145 = format: cell-based, human; conditions: 48 h
LOX IMVI = format: cell-based, human; conditions: 48 h; for CC50: read-out: LC50 (the source's name)
HCT-15 = format: cell-based, human; conditions: 48 h
OVCAR-4 = conditions: Homo sapiens, OVCAR-4, 48 h, read-out: Growth inhibition (%)
SNB-19 = format: cell-based, human; conditions: 48 h
UACC-257 = format: cell-based, human; conditions: 48 h
A549/ATCC = format: cell-based, human; conditions: 48 h
A498 = format: cell-based, human; conditions: 48 h
NCI-H522 = format: cell-based, human; conditions: 48 h
RPMI-8226 = format: cell-based, human; conditions: 48 h
OVCAR-3 = format: cell-based, human; conditions: 48 h
OVCAR-5 = format: cell-based, human; conditions: 48 h
ACHN = format: cell-based, human; conditions: 48 h
MALME-3M = format: cell-based, human; conditions: five-dose, 48 h, MELME-3M
EKVX = format: cell-based, human; conditions: 48 h
MOLT-4 = format: cell-based; conditions: Homo sapiens, 48 h
OVCAR-8 = format: cell-based, human; conditions: 48 h
HL-60(TB) = format: cell-based, human; conditions: 48 h
UO-31 = format: cell-based, human; conditions: five-dose, 48 h, UO-31
SR = conditions: Homo sapiens, 48 h, read-out: Growth inhibition (%)
Protocol: Anticancer activity was tested against 60 cancer cell lines (NCI-60) after 48h treatments with a single dosage of 10 μM of compounds by using sulforhodamine B assay [39] on the traditional 96-well platform. […] The human cancer cell lines of the NCI-60 panel are grown in RPMI 1640 medium supplemented with 5% FBS (fetal bovine serum) and 2 mM L-glutamine. […] For further analysis of promising compounds, five dose screens were performed against the NCI-60 panel. Drug treatments are performed in 5 doses using 10-fold or ½ log dose dilutions.

SK-OV-3 = format: cell-based, human; conditions: 48 h
NCI-H460 = format: cell-based, human; conditions: 48 h
CAKI-1 = format: cell-based, human; conditions: 48 h
SF-268 = format: cell-based, human; conditions: 48 h
CCRF-CEM = format: cell-based, human; conditions: 48 h
BT-549 = format: cell-based, human; conditions: 48 h
MCF7 = format: cell-based, human; conditions: 48 h

O=C1Nc2cc(Cl)ccc2C1=Cc1ccc(OCc2cccnc2)cc1 (mixture of isomers) [Compound 5l, (E/Z)-6-Chloro-3-[4-(pyridin-3-ylmethoxy)benzylidene] indolin-2-one]
inhibition at 10 µM (MDA-MB-468; Homo sapiens, 10 µM single dose, MDA-MB-468 (Breast), read-out: Growth inhibition (%)): 85.7%
GI50 (MDA-MB-468; Homo sapiens, five-dose, MDA-MB-468): 3.76 µM
CC50 (MDA-MB-468; Homo sapiens, five-dose, MDA-MB-468, read-out: LC50 (the source's name)): > 100 µM
TGI (MDA-MB-468; five-dose, MDA-MB-468): 43.00 µM
inhibition at 10 µM (KM12; Homo sapiens, 10 µM single dose, KM12 (Colon), read-out: Growth inhibition (%)): 99.7%
GI50 (KM12; Homo sapiens, five-dose, KM12): 5.3 µM
TGI (KM12; five-dose, KM12): >100 µM
inhibition at 10 µM (NCI-H226; Homo sapiens, 10 µM single dose, NCI-H226 (NSCLC), read-out: Growth inhibition (%)): 62.9%
GI50 (NCI-H226; Homo sapiens, five-dose, NCI-H226): 9 µM
TGI (NCI-H226; five-dose, NCI-H226): 70.00 µM
inhibition at 10 µM (DU-145; Homo sapiens, 10 µM single dose, DU-145 (Prostate), read-out: Growth inhibition (%)): 58.6%
GI50 (DU-145; Homo sapiens, five-dose, DU-145): 13.2 µM
TGI (DU-145; five-dose, DU-145): 54.90 µM
CC50 (LOX IMVI; Homo sapiens, LOX IMVI, five-dose, LOX IMVI): 96.9 µM
inhibition at 10 µM (LOX IMVI; Homo sapiens, 10 µM single dose, LOX IMVI (Melanoma), read-out: Growth inhibition (%)): 91%
GI50 (LOX IMVI; Homo sapiens, five-dose, LOX IMVI): 4.7 µM
TGI (LOX IMVI; five-dose, LOX IMVI): 24.80 µM
CC50 (LOX IMVI; five-dose, LOX IMVI): 96.6 µM
inhibition at 10 µM (HCT-15; Homo sapiens, 10 µM single dose, HCT-15 (Colon), read-out: Growth inhibition (%)): 97.2%
GI50 (HCT-15; Homo sapiens, five-dose, HCT-15): 3.46 µM
TGI (HCT-15; five-dose, HCT-15): 25.20 µM
inhibition at 10 µM (OVCAR-4): 68.4%
inhibition at 10 µM (SNB-19; Homo sapiens, 10 µM single dose, SNB-19 (CNS), read-out: Growth inhibition (%)): 56.2%
GI50 (SNB-19; Homo sapiens, five-dose, SNB-19): 12.4 µM
TGI (SNB-19; five-dose, SNB-19): >100 µM
inhibition at 10 µM (UACC-257; Homo sapiens, 10 µM single dose, UACC-257 (Melanoma), read-out: Growth inhibition (%)): 76.7%
GI50 (UACC-257; Homo sapiens, five-dose, UACC-257): 8.06 µM
CC50 (UACC-257; Homo sapiens, five-dose, UACC-257, read-out: LC50 (the source's name)): > 100 µM
TGI (UACC-257; five-dose, UACC-257): 43.80 µM
inhibition at 10 µM (A549/ATCC; Homo sapiens, 10 µM single dose, A549/ATCC (NSCLC), read-out: Growth inhibition (%)): 58.8%
GI50 (A549/ATCC; Homo sapiens, five-dose, A549/ATCC): 15.5 µM
TGI (A549/ATCC; five-dose, A549/ATCC): >100 µM
inhibition at 10 µM (A498; Homo sapiens, 10 µM single dose, A498 (Renal), read-out: Growth inhibition (%)): 8.9%
GI50 (A498; Homo sapiens, five-dose, A498): 18 µM
CC50 (A498; Homo sapiens, five-dose, A498, read-out: LC50 (the source's name)): > 100 µM
TGI (A498; five-dose, A498): 85.20 µM
inhibition at 10 µM (NCI-H522; Homo sapiens, 10 µM single dose, NCI-H522 (NSCLC), read-out: Growth inhibition (%)): 104%
GI50 (NCI-H522; Homo sapiens, five-dose, NCI-H522): 12.3 µM
TGI (NCI-H522; five-dose, NCI-H522): 82.20 µM
inhibition at 10 µM (RPMI-8226; Homo sapiens, 10 µM single dose, RPMI-8226 (Leukemia), read-out: Growth inhibition (%)): 95.5%
GI50 (RPMI-8226; Homo sapiens, five-dose, RPMI-8226): 3.09 µM
CC50 (RPMI-8226; Homo sapiens, five-dose, RPMI-8226, read-out: LC50 (the source's name)): > 100 µM
TGI (RPMI-8226; five-dose, RPMI-8226): >100 µM
inhibition at 10 µM (OVCAR-3; Homo sapiens, 10 µM single dose, OVCAR-3 (Ovarian), read-out: Growth inhibition (%)): 61.8%
GI50 (OVCAR-3; Homo sapiens, five-dose, OVCAR-3): 57.7 µM
CC50 (OVCAR-3; Homo sapiens, five-dose, OVCAR-3, read-out: LC50 (the source's name)): > 100 µM
TGI (OVCAR-3; five-dose, OVCAR-3): 2.26 µM
inhibition at 10 µM (OVCAR-5; Homo sapiens, 10 µM single dose, OVCAR-5 (Ovarian), read-out: Growth inhibition (%)): 21.7%
GI50 (OVCAR-5; Homo sapiens, five-dose, OVCAR-5): 25 µM
TGI (OVCAR-5; five-dose, OVCAR-5): >100 µM
inhibition at 10 µM (ACHN; Homo sapiens, 10 µM single dose, ACHN (Renal), read-out: Growth inhibition (%)): 55.1%
GI50 (ACHN; Homo sapiens, five-dose, ACHN): 10.8 µM
TGI (ACHN; five-dose, ACHN): 75.30 µM
GI50 (MALME-3M; Homo sapiens, Malme-3M): 18.9 µM
TGI (MALME-3M): 75.70 µM
inhibition at 10 µM (EKVX; Homo sapiens, 10 µM single dose, EKVX (NSCLC), read-out: Growth inhibition (%)): 60.9%
GI50 (EKVX; Homo sapiens, five-dose, EKVX): 6.02 µM
TGI (EKVX; five-dose, EKVX): >100 µM
inhibition at 10 µM (MOLT-4; 10 µM single dose, MOLT-4 (Leukemia), read-out: Growth inhibition (%)): 98.1%
GI50 (MOLT-4; five-dose, MOLT-4): 2.99 µM
CC50 (MOLT-4; five-dose, MOLT-4, read-out: LC50 (the source's name)): > 100 µM
inhibition at 10 µM (OVCAR-8; Homo sapiens, 10 µM single dose, OVCAR-8 (Ovarian), read-out: Growth inhibition (%)): 88.6%
GI50 (OVCAR-8; Homo sapiens, five-dose, OVCAR-8): 7.96 µM
TGI (OVCAR-8; five-dose, OVCAR-8): 45.20 µM
GI50 (HL-60(TB); Homo sapiens, HL-60, five-dose, HL60(TB)): 4.08 µM
CC50 (HL-60(TB); Homo sapiens, HL-60, five-dose, HL60(TB), read-out: LC50 (the source's name)): > 100 µM
inhibition at 10 µM (HL-60(TB); Homo sapiens, 10 µM single dose, HL-60(TB) (Leukemia), read-out: Growth inhibition (%)): 95.5%
TGI (HL-60(TB); five-dose, HL60(TB)): >100 µM
GI50 (UO-31; Homo sapiens): 2.7 µM
CC50 (UO-31; Homo sapiens, read-out: LC50 (the source's name)): > 100 µM
TGI (UO-31): >100 µM
inhibition at 10 µM (SR): 84.2%
inhibition at 10 µM (SK-OV-3; Homo sapiens, 10 µM single dose, SK-OV-3 (Ovarian), read-out: Growth inhibition (%)): 32.2%
GI50 (SK-OV-3; Homo sapiens, five-dose, SK-OV-3): 71.8 µM
CC50 (SK-OV-3; Homo sapiens, five-dose, SK-OV-3, read-out: LC50 (the source's name)): > 100 µM
TGI (SK-OV-3; five-dose, SK-OV-3): >100 µM
inhibition at 10 µM (NCI-H460; Homo sapiens, 10 µM single dose, NCI-H460 (NSCLC), read-out: Growth inhibition (%)): 77.7%
GI50 (NCI-H460; Homo sapiens, five-dose, NCI-H460): 14 µM
CC50 (NCI-H460; Homo sapiens, five-dose, NCI-H460, read-out: LC50 (the source's name)): > 100 µM
TGI (NCI-H460; five-dose, NCI-H460): >100 µM
inhibition at 10 µM (CAKI-1; Homo sapiens, 10 µM single dose, CAKI-1 (Renal), read-out: Growth inhibition (%)): 69.8%
GI50 (CAKI-1; Homo sapiens, five-dose, CAKI-1): 4.44 µM
CC50 (CAKI-1; Homo sapiens, five-dose, CAKI-1, read-out: LC50 (the source's name)): > 100 µM
TGI (CAKI-1; five-dose, CAKI-1): 26.90 µM
inhibition at 10 µM (SF-268; Homo sapiens, 10 µM single dose, SF-268 (CNS), read-out: Growth inhibition (%)): 45.4%
GI50 (SF-268; Homo sapiens, five-dose, SF-268): 10.8 µM
CC50 (SF-268; Homo sapiens, five-dose, SF-268, read-out: LC50 (the source's name)): > 100 µM
TGI (SF-268; five-dose, SF-268): 88.10 µM
inhibition at 10 µM (CCRF-CEM; Homo sapiens, 10 µM single dose, CCRF-CEM (Leukemia), read-out: Growth inhibition (%)): 83.9%
GI50 (CCRF-CEM; Homo sapiens, five-dose, CCRF-CEM): 3.72 µM
TGI (CCRF-CEM; five-dose, CCRF-CEM): >100 µM
inhibition at 10 µM (BT-549; Homo sapiens, 10 µM single dose, BT-549 (Breast), read-out: Growth inhibition (%)): 95.7%
GI50 (BT-549; Homo sapiens, five-dose, BT-549): 10.4 µM
CC50 (BT-549; Homo sapiens, five-dose, BT-549, read-out: LC50 (the source's name)): > 100 µM
TGI (BT-549; five-dose, BT-549): 46.30 µM
inhibition at 10 µM (MCF7; Homo sapiens, 10 µM single dose, MCF7 (Breast), read-out: Growth inhibition (%)): 90.5%
GI50 (MCF7; Homo sapiens, five-dose, MCF7): 2.9 µM
CC50 (MCF7; Homo sapiens, five-dose, MCF7, read-out: LC50 (the source's name)): > 100 µM
TGI (MCF7; five-dose, MCF7): 30.90 µM
